Results as given in patent US8362071B2, “Antiadhesion agents” (The Ohio State University Research Foundation, priority 2009, dated 2013).
“Also recorded” adds a separate entry of the source. Read-outs that look alike come from different tables or passages of the source.

Legend:
[1] = test system: 4T1 metastatic breast cancer cells; test: Adhesion assay: 4T1 cell adhesion to a Matrigel-coated surface; type: cell-based, mouse; details: for anti-adhesion potency (in words) / anti-adhesion activity relative to VES (FIG. 2A, in words): 4T1 cells, Matrigel-coated surface; for anti-adhesion activity relative to VES (FIG. 2A, in words): each at 5 μM
Method: Adhesion Assay. Ninety six-well plates were coated with 12% (v/v) Matrigel (BD Biosciences) at 37° C. for 1 hour, washed twice with washing buffer (0.1% BSA-containing RPMI medium) followed by blocking with 0.5% BSA-containing RPMI medium at 37° C. for 60 minutes. 4T1 cells were treated with individual derivatives at the indicated concentrations at 37° C. in a CO2 incubator for 60 minutes, and 2×10^4 cells in 100 μl were seeded in each well. Cells were allowed to adhere to the Matrigel-coated surface for 30 min at 37° C., and nonadherent cells were removed by gentle washing with the aforementioned washing buffer. Adherent cells were fixed with 10% formalin, stained with 0.5% crystal violet, and dissolved in 2% SDS. Absorbance at 570 nm was measured in an ELISA plate reader (Molecular device, Sunnyvale, Calif.).

[2] = test system: focal adhesion kinase (FAK); test: FAK protein stability by Western blotting; type: cell-based, mouse; details: each at 5 μM, 4T1 cells, 1 h
Method: (§1) VES derivatives target focal adhesion kinase (FAK) degradation. Considering the important role of FAK in regulating the formation of focal adhesions and actin stress fibers (McLean et al., Nat Rev Cancer 5, 505-15 (2005)), the effect of compound 2 on focal adhesion sites in 4T1 cells was assessed by immunostaining with anti-FAK antibodies, the results of which are shown in FIG. 4A. […] It is noteworthy that the disruption of actin stress fibers and focal adhesion by compound 2 is reminiscent of that induced by mannitol in neuroblastoma cells. Kim et al. J Biol Chem 277, 27393-400 (2002). As mannitol-induced cytoskeletal changes were preceded by the degradation of FAK, the effects of compound 2 relative to VES, TS-1, and compounds 1 and 3, each at 5 μM, on FAK protein stability in 4T1 cells was investigated by Western blotting.

4T1 cells [3] = test: Transwell (Boyden chamber) migration assay, serum-induced; type: cell-based, mouse; details: FIG. 3A
Method: Migration Assay. 4T1 cells were trypsinized for 5 min, washed, and suspended in 0.2% FBS-supplemented RPMI 1640 medium. Five×10^4 cells in 0.5 ml of 0.2% FBS-supplemented RPMI medium containing individual test agents at the indicated concentrations were added to the upper chamber (i.e., insert) of each Transwell system (12 mm, polycarbonate, 12-μm pore, Millipore) in a 24-well plate, and incubated at 37° C. in a CO2 incubator for 30 min. The inserts were then switched to a new well containing 10% FBS-supplemented RPMI 1640 medium for 24 h. All cells in each well were fixed with 10% formalin followed by staining with 0.5% crystal violet. To quantify migrated cells, cells attached to the bottom side of the upper chamber and in the bottom of the well were wiped with a moistened cotton swab, which was then rinsed with 80 μl DDW. The cells were then dissolved by the addition of 320 μl 100% methanol. Enumeration of non-migrated cells was done by placing the chamber into 400 μl of 80% methanol, and incubating for 30 min in an orbital shaker. Absorbance at 570 nm was measured in an ELISA plate reader. Percentage of cell migration in each well was calculated using the following equation: % of migration=100×[(O.D. of migrated cells)−(O.D. of background)]/{[(O.D. of migrated cells)−(O.D. of background)]+[(O.D. of non-migrated cells)−(O.D. of background)]}. The migration activity in each treatment group is expressed as a percentage of that in the vehicle controls, which was considered to be 100%.

breast tumor = details: animal models; Hahn et al. 2006; cited from earlier work
[4] = test system: focal adhesion kinase (FAK); test: Focal adhesion sites by immunostaining with anti-FAK antibody; type: cell-based, mouse; details: 2.5 μM, 1 h, 4T1 cells
Method: as §1

4T1 cells [5] = test: F-actin immunostaining (actin cytoskeletal structure); type: cell-based, mouse; details: for reduction in the fluorescent intensity of F-actin relative to the DMSO control: 4 h, 4T1 cells; for effect on actin cytoskeleton (stress fibers, lamellipodia; in words): 4 hours of exposure, FIG. 3B
Method: F-actin Immunostaining To assess the effect of test compounds on actin cytoskeletal structures, cells were seeded onto coverslips in six-well plates and incubated overnight, followed by exposure to individual agents at the indicated concentrations for 4 h in 2% FBS-containing RPMI 1640 medium. Cells were then fixed in 3.7% formaldehyde, permeabilized with PBS containing 0.1% Triton X-100 and 0.1% BSA for 1 h, and then incubated with Alexa Fluor 488 phallotoxin staining solution (Molecular Probes, Inc., Eugene, Oreg.) for 30 min. Nuclear counterstaining was achieved by use of 4,6-diamidino-2-phenylindole (DAPI)-containing mounting medium. Immunocytochemically labeled cells were visualized and images captured using a Zeiss microscope (LSM510) with Argon and HeNe lasers, appropriate filters (excitation wavelengths were 488 nm and 543 nm), and a 63×1.4 numerical aperture water immersion lens. Differences in fluorescence intensity were calculated from comparisons of the control sample with each of the treatment samples under the same threshold using MacBiophotonic ImageJ software (National Institutes of Health) and were expressed as percentages of the fluorescent intensity of the untreated control. Statistical significance was evaluated using Student's t-test and considered significant at P<0.05.

[6] = Mus musculus, 4T1, adhesion to Matrigel-coated surface, FIG. 2B, read-out: IC50, inhibiting 4T1 cell adhesion

Structure (SMILES) | anti-adhesion potency (in words) [1] | FAK degradation (in words) [2] | inhibition of serum-induced 4T1 cell migration (in words) (4T1 cells [3]; 5 μM) | IC50 [1, 6] [nM] | also measured
Cc1c(C)c2c(c(C)c1OC(=O)CCC(=O)O)CCC(C)(CCCC(C)CCCC(C)C)O2 (stereo not shown) [TS-1] | substantially improved potency vis-à-vis VES | less evident or not appreciable | little effect | – | IC50 ([1]; adhesion to Matrigel-coated surface, FIG. 2B, read-out: IC50, inhibiting 4T1 cell adhesion): 2500 nM; anti-adhesion activity relative to VES (FIG. 2A, in words) [1]: significantly improved potencies
Cc1c(C)c2c(c(C)c1OC(=O)CCC(=O)O)CCC(C)(CCCC(C)C)O2 (stereo not shown) [TS-2] | substantially improved potency vis-à-vis VES | – | – | – | anti-adhesion activity relative to VES (FIG. 2A, in words) [1]: to a lesser extent
Cc1c(C)c2c(c(C)c1OCC(=O)O)CCC(C)(CCCC(C)CCCC(C)CCCC(C)C)O2 (stereo not drawn) [α-tocopheryloxyacetic acid] | – | – | – | – | effect on breast tumor growth and lung metastasis (in words) (breast tumor): suppress breast tumor growth and to reduce lung metastasis
Cc1c(C)c2c(c(C)c1OCC(=O)O)CCC(C)(C=CCC(C)CCCC(C)C)O2 (stereo not shown) [compound 2, [2-(4,8-Dimethyl-non-1-enyl)-2,5,7,8-tetramethyl-chroman-6-yloxy]-acetic acid] | – | induced FAK degradation | effective in inhibiting cell migration | 600 | IC50 ([1]; Mus musculus, 4T1, summary statement b23, read-out: IC50, blocking the adhesion of 4T1 metastatic breast cancer cells): 600 nM; effect on focal adhesion sites (FAK punctate staining; in words) [4]: loss of focal adhesion sites; also recorded: no longer detectable; reduction in the fluorescent intensity of F-actin relative to the DMSO control (4T1 cells [5]; 5 μM): 84%; effect on actin cytoskeleton (stress fibers, lamellipodia; in words) (4T1 cells [5]; 5 μM): rapid dissolution of stress fiber and impairment of lamellipodia formation
Cc1c(C)c2c(c(C)c1OC(=O)CCC(=O)O)CCC(C)(C=CCC(C)CCCC(C)C)O2 (stereo not shown) [compound 1, Succinic acid mono-[2-(4,8-dimethyl-non-1-enyl)-2,5,7,8-tetramethyl-chroman-6-yl]ester] | multifold improvement in the anti-adhesion potency | – | effective in inhibiting cell migration | 1300 | –
Cc1c(C)c2c(c(C)c1OC(=O)CCC(=O)O)CC[C@@](C)(CCC[C@H](C)CCC[C@H](C)CCCC(C)C)O2 [VES, α-tocopheryl succinate, reference compound] | modest inhibitory effect | less evident or not appreciable | – | – | inhibition of serum-induced 4T1 cell migration (in words) (4T1 cells [3]; 50 μM): little effect
Cc1c(C)c2c(c(C)c1OCC(=O)O)CCC(C)(CCCC(C)CCCC(C)C)O2 (stereo not shown) [compound 3, [2-(4,8-Dimethyl-nonyl)-2,5,7,8-tetramethyl-chroman-6-yloxy]-acetic acid] | – | – | effective in inhibiting cell migration | 2000 | reduction in the fluorescent intensity of F-actin relative to the DMSO control (4T1 cells [5]; 10 μM): 70%; effect on actin cytoskeleton (stress fibers, lamellipodia; in words) (4T1 cells [5]; 10 μM): rapid dissolution of stress fiber and impairment of lamellipodia formation
